The target of assay [1] is T1, Trica5-HT1 (Tribolium castaneum, UniProt R9ULB8). Description: Aequorin-luminescence assay, antagonist inhibition of 5-HT mediated activation of Trica5-HT1 in CHO-WTA11 cells. The conditions noted are these: for inhibition of 5-HT induced responses (words): antagonist 10 nM to 1 mM; for nature of inhibition: 5-HT dose-response in presence of different antagonist concentrations; for IC50 / logIC50 (mean ± SEM): CHO-WTA11 cells; for inhibition of activation by 100 nM 5-HT at high concentrations (≥1 mM): antagonist ≥1 mM. The format is cell-based. On the procedure:
(§1) General binding studies were performed in Chinese hamster ovary (CHO) WTA11 cells stably coexpressing apoaequorin and the promiscuous Gα16. This allowed us to measure the pharmacology independent of the downstream signaling. CHO-PAM28 cells stably expressing apoaequorin, but not the promiscuous Gα16, and human embryonic kidney cells (HEK) 293 cells were used to measure downstream signaling via Ca^2+ and cAMP, respectively. CHO cell lines were provided by Prof. Marc Parmentier (University of Brussels, Belgium) and Dr. Michel Detheux (Euroscreen S.A., Belgium). HEK293 cells were a gift from Prof. Arnd Baumann (Research Centre Jülich, Germany.
(§2) Cells were cultured in vitro as monolayers at 37°C, 5% CO2 and high relative humidity, and subcultivated twice a week. For transfection of CHO cells, 2.5 ml Opti-MEM®I (Invitrogen), 5 µg plasmid DNA and 12.5 µl Plus^TMreagent (Invitrogen) were mixed, stored at room temperature for 5 min and next repleted with 30 µl Lipofectamine™LTX (Invitrogen). After 30 min incubation at room temperature, this transfection mixture was added dropwise to the cells together with 5 ml medium. HEK293 cells were cotransfected with receptor construct (4 µg) and CRE-luciferase construct (2 µg), consisting of the open reading frame of the reporter gene, luciferase, downstream of a multimerized cAMP-response-element (CRE6x), [39]. All transfections were performed in T75 flasks with a confluency of about 60 percent. Cells were grown overnight, after which 15 ml of medium was added for an additional overnight incubation period.
(§3) The transfected CHO cells were detached with phosphate buffered saline (PBS) containing 0.2% EDTA and collected in DMEM/F-12 (without phenol red, with L-glutamine and 10 mM HEPES) (Gibco). The amount of viable cells was determined using the NucleoCounter NC-100+TM (Chemometic). Cells were pelleted for 4 min at 800 rpm at room temperature and resuspended in BSA-medium (DMEM/F12 without phenol red, with L-glutamine and 10 mM HEPES, supplemented with 0.1% bovine serum albumin) to a concentration of 5×10^6 cells/ml. Coelenterazine H (Invitrogen) was added to a final concentration of 5 µM, and cells were gently shaken for 4 h at room temperature in the dark. After a 10-fold dilution in BSA-medium, cells were incubated another 30 min. The pharmacological ligands were dissolved in BSA-medium. For agonists, 50 µl containing the final ligand concentration was added to appropriate wells of a 96-well plate. For antagonists, 25 µl of the antagonist solution was supplemented with 25 µl of a 5-HT solution. Receptor activity was measured as the light emission after adding 50 µl of the cell suspension. Light emission was measured for 30 s using a Mithras LB940 (Berthold Technologies). Subsequently, cells were lysed with Triton X-100 (0.1% in BSA-medium) and light emission was recorded for another 8 s. BSA-medium was used as a negative control. Light emission from each well was calculated relative to the total response (ligand+Triton X-100) using the output file of Mikrowin2000 software (Mikrotek). Further analysis was done in Graphpad Prism 5.
Potential antagonists were tested by simultaneously applying 5-HT (100 nM) and a high dose of antagonist (100 µM) to Trica5-HT1 expressing cells (Figure 4A). In addition, the dose-dependence of the antagonistic effects were measured with antagonist concentrations ranging from 10 nM to 1 mM (Figure 4B). […] We used the Gaddum/Schild plot to compare the inhibitory potencies of the antagonists by their pA2 values (i.e. the […] of the concentration of antagonist that doubles the amount of 5-HT required for obtaining the same effect).

Assay [2] concerns the target T1, Trica5-HT1. The assay is described as follows: Aequorin-luminescence assay, agonist activation of Trica5-HT1 in CHO-WTA11 cells (apoaequorin + Gα16). To be noted: for response at 100 µM agonist: Figure 3A; for logEC50 (mean ± SEM) / EC50: receptor activation in CHO-WTA11 cells; for response at concentrations ≤100 µM: results not shown; for agonist behaviour: dose-response 1 pM to 1 mM. The format is cell-based. The protocol:
as §1, §2, §3
In order to pharmacologically characterize Trica5-HT1, we used CHO-WTA11 cells stably expressing apoaequorin and the promiscuous Gα16 subunit. […] The dose-response relationship for 5-HT and these synthetic agonists was examined at concentrations ranging from 1 pM to 1 mM (Figure 3B). […] Since the efficacy achieved by any agonist depends on the number of receptors expressed, we measured a dose-response curve for 5-HT in every experiment and normalized all agonist effects to the maximum 5-HT response, set at 100% (Figure 3B).

Setting [3] is: IC50, inhibition of 5-HT (100 nM) mediated activation.
Where [4] appears, read: logIC50 (mean ± SEM), inhibition of 5-HT (100 nM) mediated activation, given as negative log values.
The mark [5] stands for this setting: inhibition of 5-HT (100 nM) mediated activation, given as negative log values.
[6] abbreviates: inhibition of 5-HT (100 nM) mediated activation, read-out: IC50.

Each structure is given as a SMILES string. Entries after “also recorded” stand apart in the source; their conditions may differ. Counter-ions that a name gives are not always drawn. Like-named read-outs stand apart in the source and are kept apart here.

Data on 13 molecules can be found in paper PMC3669024, “Pharmacological Characterization of a 5-HT1-Type Serotonin Receptor in the Red Flour Beetle, Tribolium castaneum” (PLoS ONE, 2013).

T1 sequence (R9ULB8 entry or part of it): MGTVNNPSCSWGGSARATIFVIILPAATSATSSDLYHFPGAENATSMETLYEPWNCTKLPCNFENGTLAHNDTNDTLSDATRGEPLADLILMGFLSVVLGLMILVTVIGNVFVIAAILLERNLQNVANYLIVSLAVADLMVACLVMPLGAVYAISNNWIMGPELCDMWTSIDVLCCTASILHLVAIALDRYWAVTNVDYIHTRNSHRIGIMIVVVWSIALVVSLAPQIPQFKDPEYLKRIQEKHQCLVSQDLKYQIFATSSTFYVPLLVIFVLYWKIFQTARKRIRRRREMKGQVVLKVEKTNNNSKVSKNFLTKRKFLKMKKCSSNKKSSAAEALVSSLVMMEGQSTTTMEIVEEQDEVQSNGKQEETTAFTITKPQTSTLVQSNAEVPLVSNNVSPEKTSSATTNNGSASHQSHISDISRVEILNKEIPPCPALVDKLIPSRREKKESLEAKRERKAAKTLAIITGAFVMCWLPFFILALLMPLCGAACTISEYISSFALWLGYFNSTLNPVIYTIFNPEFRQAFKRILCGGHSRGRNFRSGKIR

Take `CC[C@@H](CO)NC(=O)[C@@H]1C=C2c3cccc4c3c(cn4C)C[C@H]2N(C)C1` [methysergide, methysergide maleate]: on Trica5-HT1 [1] (5-HT 100 nM), the “inhibition of 5-HT induced responses (words)” value (“inhibition … (words)” below) is given as “effective dose-dependent inhibition”. In addition, at Trica5-HT1 [1], the nature of inhibition entry was “competitive antagonists” and the “inhibition of activation by 100 nM 5-HT at high concentrations (≥1 mM)” value (“inhibition of activation by 100 nM 5-HT” for short) is reported as “completely inhibited”. This molecule came in with an IC50 against Trica5-HT1 [1] (setting [3]) of 34 µM. The IC50 against Trica5-HT1 [1] (setting [4]) was 33.9 µM.

In the case of `CC(N)Cc1c[nH]c2ccc(O)cc12.O=C(O)/C=C\C(=O)O` (stereo not drawn) [αm-5-HT, α-methylserotonin maleate], the “response at 100 µM agonist” value on Trica5-HT1 [2] (CHO-WTA11 cells) is reported as “Significant responses”. Moreover, the “fold less potent than 5-HT” value at Trica5-HT1 [2] (EC50 compared with 5-HT, CHO-WTA11 cells) is reported as “more than 100 fold”. In addition, the “logEC50 (mean ± SEM)” value on Trica5-HT1 [2] (given as negative log values) is −4.97±0.18. Moreover, on Trica5-HT1 [2] (read-out: EC50), the EC50 stood at 10.7 µM.

`NCCc1ccc(O)cc1` [tyramine, tyramine hydrochloride]: on Trica5-HT1 [2] (CHO-WTA11 cells), the “response at concentrations ≤100 µM” value was “did not generate any detectable responses”.

Consider `NCCc1c[nH]c2ccc(C(N)=O)cc12.O=C(O)/C=C\C(=O)O` [5-CT, 5-carboxamidotryptamine maleate], for which, on Trica5-HT1 [2] (CHO-WTA11 cells), the “response at 100 µM agonist” value is “Significant responses” and the “agonist behaviour” value is “partial agonists”. The “logEC50 (mean ± SEM)” value at Trica5-HT1 [2] (given as negative log values) was −4.61±0.17. Moreover, the EC50 on Trica5-HT1 [2] (read-out: EC50) worked out at 24.7 µM.

As for `CC1CCN(CC[C@H]2CCCN2S(=O)(=O)c2cccc(O)c2)CC1.Cl` [SB-269970, SB-269970 hydrochloride], at Trica5-HT1 [1] (5-HT 100 nM), the “inhibition … (words)” value is “Moderate inhibition; also recorded: more effective inhibition”. In addition, the “logIC50 (mean ± SEM)” value at Trica5-HT1 [1] (setting [5]) is on record as −3.69±0.25. In addition, the IC50 at Trica5-HT1 [1] (setting [6]) stood at 205 µM.

As for `COC(=O)[C@@H]1[C@H]2C[C@H]3c4[nH]c5ccccc5c4CCN3C[C@@H]2CC[C@@H]1O` [yohimbin, yohimbine hydrochloride], the inhibition result against Trica5-HT1 [1] (5-HT 100 nM, even at concentrations up to 100 µM) is “about 30%”.

As to `COc1cc2nc(N3CCN(C(=O)c4ccco4)CC3)nc(N)c2cc1OC` [prazosin, prazosin hydrochloride], at Trica5-HT1 [1] (5-HT 100 nM), the “inhibition … (words)” value is given as “effective dose-dependent inhibition”. Besides, at Trica5-HT1 [1], the nature of inhibition entry is “competitive antagonists” and the “inhibition of activation by 100 nM 5-HT” value is reported as “completely inhibited”. In addition, the IC50 against Trica5-HT1 [1] (setting [3]) came out at 1.39 µM. In addition, the IC50 on Trica5-HT1 [1] (setting [4]) is 1.38 µM.

`O=C(c1ccc(F)cc1)C1CCN(CCn2c(=O)[nH]c3ccccc3c2=O)CC1` [ketanserin, ketanserin (+)-tartrate]: at Trica5-HT1 [1] (5-HT 100 nM), the “inhibition … (words)” value is reported as “no detectable inhibition”. The IC50 entry against Trica5-HT1 [1] (inhibition of 5-HT (100 nM) mediated activation) was “no inhibition”. Further, the “logIC50 (mean ± SEM)” value on Trica5-HT1 [1] (setting [5]) is “no inhibition”.

On to `CSc1ccc2c(c1)C(N1CCN(C)CC1)Cc1ccccc1S2` (stereo not drawn) [methiothepin, methiothepin mesylate], for which the “inhibition … (words)” value at Trica5-HT1 [1] (5-HT 100 nM) was “effective dose-dependent inhibition”; at Trica5-HT1 [1] (5-HT 100 nM, listed as Methiothepin) it was “dose-dependent inhibition”. Moreover, the nature of inhibition entry on Trica5-HT1 [1] was “competitive antagonists”. Also, on Trica5-HT1 [1] (Gaddum/Schild plot, 5-HT dose-response in presence of 10 nM to 1 mM antagonist, read-out: pA2 (± SEM) (converted)), the Kb was 0.676 µM. In addition, at Trica5-HT1 [1], the “inhibition of activation by 100 nM 5-HT” value is recorded as “completely inhibited”. Moreover, the IC50 at Trica5-HT1 [1] (inhibition of 5-HT (100 nM) mediated activation, given as negative log values, read-out: logIC50 (mean ± SEM) (converted)) is 16.2 µM; on Trica5-HT1 [1] (setting [6]) it was 16.4 µM.

Turning to `Cl.NCCc1ccc(O)c(O)c1.NCCc1ccc(O)c(O)c1` [dopamine, 3-hydroxytyramine (dopamine) hydrochloride], the “response at concentrations ≤100 µM” value on Trica5-HT1 [2] (CHO-WTA11 cells) is reported as “did not generate any detectable responses”.

Consider `COc1ccc2[nH]cc(CCN)c2c1` [5-MT, 5-methoxytryptamine], for which, at Trica5-HT1 [2] (CHO-WTA11 cells), the “response at 100 µM agonist” value is reported as “Significant responses” and the “agonist behaviour” value is recorded as “partial agonists”. On Trica5-HT1 [2] (given as negative log values, read-out: logEC50 (mean ± SEM) (converted)), the EC50 is 91.2 µM. On Trica5-HT1 [2] (read-out: EC50), the EC50 is 91.8 µM.

With `CC(C)(C)[C@]1(O)CCN2C[C@H]3c4ccccc4CCc4cccc(c43)[C@@H]2C1` [butaclamol, (+)-butaclamol hydrochloride], the “agonistic effects at high concentration” value at Trica5-HT1 [1] (100 µM, with 5-HT 100 nM) is on record as “some agonistic effects”. Further, at Trica5-HT1 [1] (5-HT 100 nM), the “inhibition … (words)” value is recorded as “no detectable inhibition”. In addition, on Trica5-HT1 [1] (setting [4]), the IC50 was 204 µM.

For `NCC(O)c1ccc(O)cc1` (racemic) [octopamine, DL-octopamine hydrochloride], the “response at concentrations ≤100 µM” value on Trica5-HT1 [2] (CHO-WTA11 cells) is on record as “did not generate any detectable responses”.
